Experimental data: PubChem BioAssay AID652241 (Broad Institute, 2013)
Records with an inconclusive call do not appear. Activity calls are given as the source filed them.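 The calls were made as follows: active = fitted curve reaches activity 50 in the expected rising direction at or below the top valid tested dose; inconclusive = no clear call, values can overlap the other calls; inactive = activity in the wrong direction, and the rest.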

Biological target: Virion infectivity factor (Human immunodeficiency virus type 1 group M subtype B (isolate BH10)) + Virion infectivity factor (Human immunodeficiency virus type 1 group M subtype B (isolate BRU/LAI)) + Virion infectivity factor (Human immunodeficiency virus type 1 group M subtype B (isolate PCV12)) + Virion infectivity factor (Human immunodeficiency virus type 1 group M subtype B (isolate HXB2)) (UniProt P69720+P69721+P69722+P69723)
Sequence (P69720 whole entry, looked up): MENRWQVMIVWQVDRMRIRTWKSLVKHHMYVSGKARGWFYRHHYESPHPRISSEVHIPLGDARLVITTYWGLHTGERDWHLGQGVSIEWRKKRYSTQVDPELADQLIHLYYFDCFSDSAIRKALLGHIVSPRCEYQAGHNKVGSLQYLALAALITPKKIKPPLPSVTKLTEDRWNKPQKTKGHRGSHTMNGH
Sequence (P69721 whole entry, looked up): as the sequence (P69720 whole entry, looked up) above
Sequence (P69722 whole entry, looked up): as the sequence (P69720 whole entry, looked up) above
Sequence (P69723 whole entry, looked up): as the sequence (P69720 whole entry, looked up) above
Assay: dose-dependent disruption of HIV Vif self-association – imaging, HEK293T, cherry-picks, dose response (AID 652241);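 also: imaged cell signal that rises when Vif self-association is disrupted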
Conditions: HEK293T Vif multimerization imaging, 24 h

Row | Structure (SMILES) | activity, higher = inhibition (at 19.5 µM (top of the series)) | further results
1 | O=C1c2ccccc2C(Nc2ccc(S(=O)(=O)N3CCOCC3)cc2)N1c1ccccn1 (stereo unspecified) | inactive | –
2 | Cn1nnnc1Sc1ncnc2scc(-c3ccc(Cl)cc3)c12 | – | AC50: 3.75 µM
3 | COc1ccc(C=C2CS(=O)(=O)CC(=Cc3ccc(OC)cc3)C2=O)cc1 | inactive | –
4 | CC(C(=O)O)c1ccc(N2Cc3ccccc3C2=O)cc1 (stereo unspecified) | inactive | –
5 | Cc1cc(N2CCN(S(=O)(=O)c3ccc(Cl)c(Cl)c3)CC2)c2ccccc2n1 | inactive | –
6 | COc1cc(NC(=O)NCc2ccco2)ccc1-c1ccc(NC(=O)NCc2ccco2)cc1OC | inactive | –
7 | COc1c(Br)cc(Br)cc1/C=C1/C(=O)N=C(N)N1C | inactive | –
8 | O=C(Nc1ccc(-c2nc3ccc(NC(=O)c4cccs4)cc3[nH]2)cc1)c1cccs1 | – | AC50: 3.89 µM
9 | CCCOCCOC(=O)c1[nH]c2c(c1C)C(=O)CC(c1cc(OC)ccc1OC)C2 (stereo unspecified) | inactive | –
10 | COc1ccc(S(=O)(=O)N2c3cc(Cl)ccc3Oc3nc4ccccc4nc32)cc1 | – | AC50: 3.14 µM
11 | O=C(COC(=O)c1ccccc1Br)NC1CCCC1 | inactive | –
12 | Cc1nnc(NC(=O)Cn2nc(C)c3ccccc3c2=O)s1 | inactive | –
13 | CC(O)CN(C)CC/C=C1/c2ccccc2CSc2ccccc21 (stereo unspecified) | inactive | –
14 | NS(=O)(=O)c1ccc(-c2ccc(/C=C3\SC(=O)NC3=O)o2)cc1 | inactive | –
15 | C/C=C/c1ccc(OCCNCc2ccccc2)c(OC)c1 | inactive | –
16 | O=C(Nc1nn[nH]n1)c1cc(-c2ccc(Cl)c(Cl)c2Cl)nc2ccccc12 | inactive | –
17 | CCCN1C(=O)/C(=C\C=C2\N(CC)c3ccccc3C2(C)C)SC1=S | – | activity, higher = inhibition (at 6.8 µM (top of the series)): inactive
18 | O=C(O)c1ccc(-c2nc(-c3cccc(C(F)(F)F)c3)cs2)cc1 | inactive | –
19 | CCN1CCc2c(sc(N)c2C(N)=O)C1 | inactive | –
20 | CCc1nnc(NC(=O)c2sc3nc4cc(C)ccc4cc3c2N)s1 | – | activity, higher = inhibition (at 6.8 µM (top of the series)): inactive
21 | O=C(c1cc(-c2ccccc2O)on1)N1CCCCCC1 | inactive | –
22 | COc1ccccc1CNC(=O)CSC1=NCCS1 | inactive | –
23 | CCOC(=O)c1nc(Nc2ccc(C(=O)OC)cc2)c2ccccc2n1 | inactive | –
24 | CNC(=O)COc1ccccc1C(=O)Nc1ccc2c(c1)oc1ccccc12 | inactive | –

Row | Structure (SMILES) | activity, higher = inhibition (at 19.5 µM (top of the series)) | further results
25 | Cc1ccc(Nc2nc(N)nc(CSc3nnc(-c4ccncc4)o3)n2)cc1 | inactive | –
26 | COc1ccc(-n2nc(C(=O)NCC(=O)Nc3cccc(Cl)c3)c3ccccc3c2=O)cc1OC | – | AC50: 8.05 µM
27 | CC(C)CC(NC(=O)C1CCCCC1)C(=O)N1CCC2(CC1)OCCO2 (stereo unspecified) | inactive | –
28 | C=CCN1C(=O)/C(=C/c2ccc(-c3ccc(F)cc3)o2)SC1=S | inactive | –
29 | Cn1c(=O)[nH]c(=O)c2c1nc([N+](=O)[O-])n2Cc1ccccc1 | – | AC50: 5.03 µM
30 | Cc1ccc(CCC(=O)Nc2ncc(Cc3cc(Cl)ccc3Cl)s2)o1 | – | AC50: 2.02 µM
31 | CCn1cc(CN2CCCC(C(=O)Nc3cccc(-c4cc5ccccc5[nH]4)c3)C2)c(C)n1 (stereo unspecified) | inactive | –
32 | CCN1C(=O)c2cccc3c(S(=O)(=O)Nc4nc(C)cs4)ccc1c23 | – | AC50: 15.1 µM
33 | CCn1c(SCc2nc3ccccc3c(=O)[nH]2)nc2ccccc2c1=O | inactive | –
34 | O=C(c1ccc(Cl)c(Cl)c1)N(Cc1ccco1)c1ccc(O)cc1 | inactive | –
35 | COC(=O)c1ccc(Oc2coc3cc(OCc4cnn(-c5ccccc5)c4)ccc3c2=O)cc1 | – | AC50: 17.2 µM
36 | Cc1nn2c(COc3ccc(NC(=O)c4ccccc4Cl)cc3)nnc2c2ccccc12 | inactive | –
37 | Cc1ccnc(SCC(=O)n2c3c(c4ccccc42)CC(C)CC3)n1 (stereo unspecified) | inactive | –
38 | Nc1nonc1-c1nc2ccccc2n1CC(=O)NC1CCCC1 | inactive | –
39 | O=c1[nH]c(=O)n(Cc2ccco2)c2c1C(C(F)(F)F)(C(F)(F)F)N=C(c1ccco1)N2 | inactive | –
40 | O=C(CSc1ncccn1)NC(=O)Nc1ccc2c(c1)OCCO2 | inactive | –
41 | O=S(=O)(Nn1cnnc1)c1ccccc1 | inactive | –
42 | COc1ccc(CN2C3CCC2CC(NC(=O)c2cc(OC)c(OC)c(OC)c2)C3)cc1 (stereo unspecified) | inactive | –
43 | COc1cc(-c2cnc3c(NC=O)cc(-c4ccccc4)cn23)cc(OC)c1OC | – | AC50: 2.45 µM
44 | CC(C)CN(C(=O)COC(=O)CSc1ccccc1)c1c(N)n(Cc2ccccc2)c(=O)[nH]c1=O | inactive | –
45 | COC(=O)c1cc(Cl)c(NC(=O)c2cc3ccccc3o2)cc1OC | inactive | –
46 | CCC1(CC)NC(=O)N(CC(=O)Nc2ccc(OCc3ccccc3)cc2)C1=O | inactive | –
47 | COc1cccc(NC(=O)c2cc(C(=O)Nc3cccc(OC)c3)n(C)n2)c1 | inactive | –
48 | CCOc1c(C(N)=O)c(-c2ccccc2)c2c(=O)[nH]c3ccccc3n12 | – | AC50: > 19.5 µM (inactive)

Row | Structure (SMILES) | activity, higher = inhibition (at 19.5 µM (top of the series)) | further results
49 | O=C(Nc1ccc2c(c1)nc1n2CCOC1)c1ccccc1 | inactive | –
50 | S=C(NC1CC1)N1CCc2ccccc2C1 | inactive | –
51 | O=C(NNC(=O)c1cc2ccccc2oc1=O)c1ccccc1 | inactive | –
52 | COc1cc(-c2cc(=O)c3c(O)c(OC)c(OC)c(O)c3o2)ccc1O | – | AC50: > 19.5 µM (inactive)
53 | CCOc1cc(/C=C2\CN(CC)C/C(=C\c3ccc(O)c(OCC)c3)C2=O)ccc1O | – | AC50: 7.26 µM
54 | Cc1nc(-c2ccc(O)c(O)c2)cs1 | – | AC50: > 19.5 µM (inactive)
55 | O=C(c1cc(-c2ccncc2)nc2ccccc12)N1CCN(Cc2ccccc2)CC1 | inactive | –
56 | CCN(CCCNC(=O)C1CCC(=O)N1Cc1ccc(C)cc1)c1cccc(C)c1 (stereo unspecified) | inactive | –
57 | COc1cc(-c2cc(=O)c3c(O)c(OC)c(OC)cc3o2)cc(OC)c1O | inactive | –
58 | CCC(C)NC(=O)Cn1c(=O)n(-c2ccccc2)c(=O)c2ccc(C(=O)NCc3ccco3)cc21 (stereo unspecified) | inactive | –
59 | COc1ccc(S(=O)(=O)Nc2cccc3ccc(O)cc23)cc1 | inactive | –
60 | COc1ccc(CCNC(=O)[C@@H](NC(N)=O)C(C)C)cc1 | inactive | –
61 | O=C(CN(C(=O)c1csnn1)c1ccc(F)cc1)NCc1ccc2c(c1)OCO2 | inactive | –
62 | O=C1Nc2ccccc2S/C1=C/Nc1cccc(Cl)c1 | – | activity, higher = inhibition (at 6.8 µM (top of the series)): inactive
63 | CC1(C)CC(=O)C2=C(C1)Nc1ccccc1N(C(=O)C1CC1)C2c1ccco1 (stereo unspecified) | inactive | –
64 | O=C(CCCCn1ccc(=O)[nH]c1=O)Nc1ccc(O)c(C(=O)O)c1 | inactive | –
65 | Cc1cc(NS(=O)(=O)c2ccc(NC(=O)c3ccc(Cl)cc3Cl)cc2)no1 | inactive | –
66 | CCOc1ccccc1NC(=O)Cn1nnc(C(=O)NCc2cccs2)c1N | – | AC50: 5.28 µM
67 | CCN1C(=O)NC(c2ccccc2)C1=O (stereo unspecified) | inactive | –
68 | Cc1ccc(C(=O)NC(CCc2ccccc2)C(=O)O)cc1 (stereo unspecified) | inactive | –
69 | COc1ccccc1C1C2=C(COC2=O)Nc2cc3c(cc21)OCO3 (stereo unspecified) | – | AC50: 1.99 µM
70 | CCCCOc1cccc2c(=O)n(CC(=O)Nc3ccc4c(c3)OCCO4)ccc12 | inactive | –
71 | CCN(CC)C1Oc2cc3c(cc2C(c2cc(OC)c(OC)c(OC)c2)C1C)OCO3 (stereo unspecified) | – | AC50: 6.24 µM
